Source: patent EP2902035B1, “Cell-permeable peptide inhibitors of the JNK signal transduction pathway for use in the treatment of inflammatory eye diseases” (Xigen Inflammation Ltd., priority 2010, dated 2012)

Experiments:
Format in all cases: in vivo, Lewis rats
ED1 positive cells = experiment: Quantification of infiltrating ED1 positive cells on histological sections in EIU; conditions: IVT injection (SEQ ID NO: 11: 0.2 µg/injection); 24 hours after LPS challenge; mean ± SEM
Experimental: (§1) For immunohistochemistry, eyeballs were collected and fixed for 1h at room temperature in phosphate buffered saline (PBS) containing 4% paraformaldehyde before being rinsed overnight in PBS. The next day, samples were embedded and frozen in optimal cutting-temperature (OCT) compound (Tissue-Tek®, Sakura Finetek, Zoeterwoude, Netherland) and stored at -80°C. Frozen antero-posterior sections of eyes (10 µm thick) were performed at the optic nerve level using a cryostat (Leica CM 3050S, Rueil-Malmaison, France) and mounted on super-frost slides for immunohistochemical analysis.
(§2) A second set of experiment was designed to evaluate the anti-inflammatory effect of the JNK-inhibitor (poly-)peptide of SEQ ID NO: 11 at the cellular and tissue level as well as the biodistribution of this molecule 24 hours after administration. Rats were randomized into 11 experimental groups. 6 groups of rats with uveitis: untreated uveitic rats, rats injected intravenously with NaCl or the JNK-inhibitor (poly-)peptide of SEQ ID NO: 11 and rats injected intravitreously with the vehicle, the JNK-inhibitor (poly-)peptide of SEQ ID NO: 11 or dexamethasone. The 5 additional groups without uveitis were: untreated healthy rats, rats treated by NaCl IV or the JNK-inhibitor (poly-)peptide of SEQ ID NO: 11 IV and rats injected IVT with NaCl or the JNK-inhibitor (poly-)peptide of SEQ ID NO: 11. Three eyes from separate rats were collected per group and used for immunohistochemistry.
(§3) To characterize the cellular infiltrate, sections were double-stained with ED1 and iNOS. […] After staining nuclei with DAPI (Sigma-Aldrich, Saint-Quentin Fallavier, France), sections were mounted in PBS/Glycerol (1/1) and observed by fluorescence photomicroscopy (FXA, Microphot, Nikon, Melville, USA). […] ED1 positive cells and polymorphonuclear cells, identified by the shape of their nuclei stained with DAPI, were quantified on histological sections. […] Results were expressed as mean ± standard error of the mean (SEM).

[1] = system: polymorphonuclear cells (PMN); experiment: Quantification of infiltrating polymorphonuclear cells on histological sections in EIU; conditions: IVT injection (SEQ ID NO: 11: 0.2 µg/injection); at 24 hours; mean ± SEM
Experimental: as §1, §2, §3

[2] = system: Endotoxin-Induced Uveitis (EIU); experiment: Scoring of Endotoxin-Induced Uveitis (EIU) by slit lamp; conditions: intravitreous (IVT) administration at LPS challenge (SEQ ID NO: 11: 0.2 µg/injection); scored at 24 hours on a scale from 0 to 5; mean ± SEM
Experimental: For intravenous (IV) injection, 100 µL of saline (NaCl 0.9%) or the JNK-inhibitor (poly-)peptide of SEQ ID NO: 11 (20 µg/kg in saline) were injected in a tail vein using a 25G-needle connected on a 1 mL syringe (Becton Dickinson, France). For intravitreous (IVT) injection, 5 µL of saline or the JNK-inhibitor (poly-)peptide of SEQ ID NO: 11 (0.2 µg/injection in saline) were injected in both eyes using a 30G disposable needle (BD-microfine syringe, nm Médical, Asnière, France). The IV dose of 20 µg/kg (i.e. 3.5 µg/rat in rats weighing 175g) was chosen according to studies showing that the JNK-inhibitor (poly-)peptide of SEQ ID NO: 11 is active at very low doses in other models. For intravitreous injections, the inventors used the minimal dose used in direct ear application after acute noise trauma in patients. This corresponds to 5% of the dose injected intravenously. […]
In a first set of experiment, 70 rats were randomized into 14 experimental groups with 5 rats per group. […] Clinical ocular inflammation was recorded only at 24 hours (see Scoring of Endotoxin-Induced Uveitis (EIU) section). […]
Animals were examined by slit lamp at 24 hours, the clinical peak of the disease in our experiments. The intensity of clinical ocular inflammation was scored on a scale from 0 to 5 for each eye as described previously 10: grade (0) indicates no inflammation; grade (1) indicates the presence of a minimal iris and conjunctival vasodilation but without the observation of flare or cells in the anterior chamber (AC); grade (2) indicates the presence of moderate iris and conjunctival vessel dilation but without evident flare or cells in the AC; grade (3) indicates the presence of intense iris vessels dilation, flare and less than 10 cells per slit lamp field in the AC; grade (4) indicates the presence of more severe clinical signs than grade 3, with more than 10 cells in the AC with or without the formation of a hypopion; grade (5) indicates the presence of intense inflammatory reaction, fibrin formation in the AC and total seclusion of the pupil. […]

Dexamethasone sodium phosphate
number of ED1 positive infiltrating cells (ED1 positive cells): 79 ± 15 | number of polymorphonuclear cells (PMN) [1]: 42 ± 11 | EIU clinical scores [2]: 1.8 ± 0.4 A.U.
